Data reported in ChEMBL document CHEMBL1138976, “Anti-HIV activity of stilbene-related heterocyclic compounds” (Bioorg Med Chem Lett, 2006).
The source made the active and inactive calls. The rule behind the calls is not given here.

Key:
[1] = molecular target: T1, Protein Tat (Human immunodeficiency virus type 1 group M subtype B (isolate PCV12)(HIV-1)) (UniProt P04326); experiment: Inhibition of Tat activity in HeLa cells transfected with Tat-Luc at 100 uM; format: functional, cell-based
T1 sequence (whole entry): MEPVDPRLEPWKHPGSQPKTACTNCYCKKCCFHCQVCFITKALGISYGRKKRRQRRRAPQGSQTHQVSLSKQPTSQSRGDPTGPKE

[2] = Cytotoxicity by Propidium Iodide staining
[3] = molecular target: Nuclear factor NF-kappa-B complex (Homo sapiens) (UniProt Q00653+P19838+Q04206); experiment: Inhibition of TNFalpha activated NF-kappaB mediated transactivation of HIV-1 LTR Luc in 5.1 cells at 100 uM; format: functional, cell-based
Chain of Nuclear factor NF-kappa-B complex (Homo sapiens) (P19838 whole entry, looked up): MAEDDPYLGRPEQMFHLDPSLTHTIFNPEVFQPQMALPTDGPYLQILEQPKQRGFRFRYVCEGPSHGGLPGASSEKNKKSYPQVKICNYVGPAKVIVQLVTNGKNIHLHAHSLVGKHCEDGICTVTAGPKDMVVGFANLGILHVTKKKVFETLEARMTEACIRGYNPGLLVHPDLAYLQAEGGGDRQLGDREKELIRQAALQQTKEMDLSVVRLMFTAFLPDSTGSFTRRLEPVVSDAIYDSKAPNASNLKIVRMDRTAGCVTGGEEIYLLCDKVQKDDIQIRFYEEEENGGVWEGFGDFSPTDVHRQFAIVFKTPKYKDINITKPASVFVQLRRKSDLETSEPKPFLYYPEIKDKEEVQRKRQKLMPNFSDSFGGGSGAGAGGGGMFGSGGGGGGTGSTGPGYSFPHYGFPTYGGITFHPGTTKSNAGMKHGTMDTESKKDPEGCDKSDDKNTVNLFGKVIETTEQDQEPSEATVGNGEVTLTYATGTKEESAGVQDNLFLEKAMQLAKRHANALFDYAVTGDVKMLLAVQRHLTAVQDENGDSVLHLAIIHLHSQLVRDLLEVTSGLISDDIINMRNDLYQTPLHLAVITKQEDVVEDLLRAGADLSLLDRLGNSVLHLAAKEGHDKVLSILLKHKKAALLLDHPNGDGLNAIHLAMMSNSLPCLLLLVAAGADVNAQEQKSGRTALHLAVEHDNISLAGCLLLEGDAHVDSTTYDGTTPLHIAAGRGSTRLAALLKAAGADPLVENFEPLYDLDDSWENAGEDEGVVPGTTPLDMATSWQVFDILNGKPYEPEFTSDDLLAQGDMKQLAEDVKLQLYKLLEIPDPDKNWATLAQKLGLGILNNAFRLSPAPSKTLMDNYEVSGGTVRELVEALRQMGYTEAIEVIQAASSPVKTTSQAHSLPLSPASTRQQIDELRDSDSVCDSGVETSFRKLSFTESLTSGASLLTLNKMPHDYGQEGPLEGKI
Chain of Nuclear factor NF-kappa-B complex (Homo sapiens) (Q00653 whole entry, looked up): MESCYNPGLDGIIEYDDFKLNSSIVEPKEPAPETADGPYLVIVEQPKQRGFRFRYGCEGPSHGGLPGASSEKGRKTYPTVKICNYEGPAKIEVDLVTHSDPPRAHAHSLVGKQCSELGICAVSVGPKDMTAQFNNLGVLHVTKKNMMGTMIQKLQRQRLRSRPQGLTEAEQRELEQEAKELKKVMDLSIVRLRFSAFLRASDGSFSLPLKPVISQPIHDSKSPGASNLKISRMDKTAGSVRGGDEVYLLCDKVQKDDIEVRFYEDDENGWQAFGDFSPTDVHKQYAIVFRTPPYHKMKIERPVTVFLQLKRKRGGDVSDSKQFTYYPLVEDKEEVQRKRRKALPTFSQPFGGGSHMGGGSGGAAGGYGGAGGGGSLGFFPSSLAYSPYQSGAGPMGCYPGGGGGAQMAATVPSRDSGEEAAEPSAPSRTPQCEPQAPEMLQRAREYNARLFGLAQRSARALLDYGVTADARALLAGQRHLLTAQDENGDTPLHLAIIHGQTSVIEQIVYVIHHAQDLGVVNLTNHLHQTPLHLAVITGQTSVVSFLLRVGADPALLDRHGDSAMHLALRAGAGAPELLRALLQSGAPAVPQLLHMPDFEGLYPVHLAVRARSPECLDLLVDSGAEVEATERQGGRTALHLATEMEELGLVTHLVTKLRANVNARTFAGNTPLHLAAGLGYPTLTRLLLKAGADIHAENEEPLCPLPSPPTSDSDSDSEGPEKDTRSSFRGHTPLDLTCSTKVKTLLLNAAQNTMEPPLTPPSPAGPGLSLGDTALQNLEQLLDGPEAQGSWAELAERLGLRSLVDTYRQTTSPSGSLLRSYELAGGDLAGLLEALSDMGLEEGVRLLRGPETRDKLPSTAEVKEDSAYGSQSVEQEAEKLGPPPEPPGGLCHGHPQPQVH
Chain of Nuclear factor NF-kappa-B complex (Homo sapiens) (Q04206 whole entry, looked up): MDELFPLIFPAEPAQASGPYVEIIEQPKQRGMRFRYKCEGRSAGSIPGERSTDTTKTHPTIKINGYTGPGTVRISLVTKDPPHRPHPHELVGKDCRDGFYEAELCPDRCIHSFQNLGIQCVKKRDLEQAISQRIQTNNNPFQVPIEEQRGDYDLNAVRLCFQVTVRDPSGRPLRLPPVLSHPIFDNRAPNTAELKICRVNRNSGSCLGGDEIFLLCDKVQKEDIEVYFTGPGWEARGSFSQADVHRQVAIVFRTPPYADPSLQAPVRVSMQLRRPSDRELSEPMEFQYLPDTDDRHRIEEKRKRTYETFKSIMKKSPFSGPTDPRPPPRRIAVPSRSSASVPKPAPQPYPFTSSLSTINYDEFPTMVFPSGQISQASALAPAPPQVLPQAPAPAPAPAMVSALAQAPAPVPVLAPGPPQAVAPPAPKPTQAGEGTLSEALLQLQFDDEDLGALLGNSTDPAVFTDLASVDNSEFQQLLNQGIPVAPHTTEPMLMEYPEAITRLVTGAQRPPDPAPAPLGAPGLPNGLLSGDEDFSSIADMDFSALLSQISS

[4] = tested on: Human immunodeficiency virus; experiment: Ratio of cytotoxic activity to anti HIV activity; format: functional
[5] = tested on: Human immunodeficiency virus; experiment: Specificity against NF-kappaB and Tat proteins assessed by activity in Hela Tet-ON assay; format: functional
[6] = tested on: Human immunodeficiency virus; experiment: Inhibition of HIV replication by recombinant virus assay; format: functional, organism-based

inhibition [1] [%]	inhibition [3] [%]	IC50 ([6]; Human immunodeficiency virus 1) [µM]	IC50 [6] [µM]	SMILES	CC50 [2] [µM]	Ratio CC50/IC50 [4]	Activity [5]
99.6	100	22.8	–	OC1(Cc2ccccc2Cl)c2cc(Cl)c(Cl)cc2C2=NCCN21 (centres undefined)	30.1	1.3	Active
14	< 0	18.8	–	Cn1nc(Cc2ccc(Cl)cc2Cl)c2ccccc2c1=O	112	6	–
60	67.7	26.1	–	OC1(Cc2ccc(Cl)c(Cl)c2)c2ccccc2C2=NCCCN21 (centres undefined)	85.2	3.3	inactive
< 0	71	–	133	Cc1ccc2c(c1)/C(=C/c1ccccc1Cl)OC2=O	> 185	>1.4	inactive
29.8	67.3	41.6	–	Oc1nnc(Cc2ccccc2Cl)c2ccccc12	> 185	>4.5	inactive
87.2	91.8	12.2	–	O=C1O/C(=C\c2ccc3c(c2)OCO3)c2ccccc21	138	11.3	Active
18.3	73	21.6	–	Cn1nc(Cc2ccccc2Cl)c2ccccc2c1=O	> 176	>8.2	inactive
< 0	3.2	45.6	–	O=C1O/C(=C\c2ccc(Cl)cc2)c2cc(Cl)c(Cl)cc21	> 154	>3.4	–
3.8	< 0	74.2	–	COc1ccc(CC2(O)c3ccccc3C3=NCCCN32)cc1 (centres undefined)	> 162	>2.2	–
75.3	100	27.6	–	COc1ccc(CC2(O)c3cc(Cl)c(Cl)cc3C3=NCCN32)cc1 (centres undefined)	44.1	1.6	inactive
76.8	< 0	–	24.4	O=C1O/C(=C\c2ccccc2Cl)c2ccccc21 (stereo in doubt; 1b)	> 195	>8	inactive
86.6	< 0	13.8	–	OC1(Cc2ccc(Cl)cc2Cl)c2ccccc2C2=NCCN21 (centres undefined)	87.5	6.3	inactive
< 0	99.7	66.7	–	OC1(Cc2ccccc2Cl)c2ccccc2C2=NCCCN21 (centres undefined)	78.6	1.2	inactive
53.9	99	96.2	–	Oc1nnc(Cc2ccc(Cl)cc2Cl)c2ccccc12	58	0.6	inactive
38.4	< 0	71	–	OC1(Cc2ccc(Cl)cc2)c2ccccc2C2=NCCN21 (centres undefined)	> 168	–	inactive
11.2	65.9	22	–	Oc1nnc(Cc2ccccc2Cl)c2cc(Cl)c(Cl)cc12	> 147	>6.7	inactive
51.2	100	60.8	–	OC1(Cc2ccc3ccccc3c2)c2ccccc2C2=NCCCN21 (centres undefined)	81	1.3	inactive

The next lines start with the compound.

SMILES	inhibition [1] [%]	inhibition [3] [%]	IC50 ([6]; Human immunodeficiency virus 1) [µM]	IC50 [6] [µM]	CC50 [2] [µM]	Ratio CC50/IC50 [4]	Activity [5]
Cc1ccc2c(c1)/C(=C/c1ccc(Cl)cc1)OC2=O	91.8	96.8	15.8	–	–	–	Active
O=C1O/C(=C\c2ccc(Cl)cc2)c2c1cccc2[N+](=O)[O-]	63.7	< 0	119	–	< 20.7	<0.2	Active
O=c1c2ccccc2c(Cc2ccc(Cl)cc2)nn1-c1ccc(Br)cc1	< 0	< 0	88.1	–	91.8	1	–
C=CCn1nc(Cc2ccc(OC)cc2)c2ccccc2c1=O	2.9	50	30.5	–	68.6	2.3	inactive
CCCCn1nc(Cc2ccc(OC)c(OC)c2)c2ccccc2c1=O	6.7	83	16	–	70.3	4.4	Active
O=C1O/C(=C\c2cccc3ccccc23)c2ccccc21	6.5	< 0	> 50	–	–	–	–
CC(C)(C)n1nc(Cc2ccc(Cl)cc2)c2ccccc2c1=O	11.5	82.1	12.8	–	72.1	5.6	inactive
COc1ccc(/C=C2\OC(=O)c3ccccc32)cc1	74	87.6	14.3	–	–	–	Active
Cn1nc(Cc2ccccc2)c2ccccc2c1=O	11.4	19.4	47.5	–	> 156	>3.3	–
COc1cc(Cc2nnc(O)c3ccccc23)cc(OC)c1OC	< 0	96.5	51.7	–	135	2.6	inactive
CSc1ccc(/C=C2\OC(=O)c3ccccc32)cc1	89.7	86.7	23.4	–	> 187	>8	Active
Cn1nc(Cc2ccc3ccccc3c2)c2ccccc2c1=O	11.8	99.9	16.6	–	57.2	3.5	Active
O=c1c2ccccc2c(Cc2ccc(Cl)cc2)nn1-c1ccc([N+](=O)[O-])cc1	29.6	54.8	89.5	–	96.3	1.1	inactive
COc1ccc(Cc2nnc(O)c3ccccc23)cc1	< 0	12.6	15.7	–	> 149	>9.5	–
Cn1nc(Cc2cccc3ccccc23)c2ccccc2c1=O	43.2	100	11	–	62.9	5.7	Active
O=c1c2ccccc2c(Cc2ccc(Cl)cc2)nn1-c1ccccc1	< 0	86.4	58.7	–	67.7	1.2	inactive
Oc1nnc(Cc2ccc(Cl)c(Cl)c2)c2cc(Cl)c(Cl)cc12	28.4	14.9	19.5	–	64.7	3.3	–
